From patent US12030864B2, “Small molecule anticancer agents, combinations and uses thereof” (priority 2018, dated 2024)
Read-outs that look alike come from different tables or passages of the source.

Tests used:
[1] = tested on: MDA-MB-468 cell line; test: Cell proliferation assay; type: cell-based; conditions: 24 treatment, FIG. 13
Protocol: (§1) Cell viability (FIG. 12), proliferation (FIG. 13), and protein synthesis (FIG. 14) assays were performed in MDA-MB-468 cell line in the presence of increasing concentrations of tcyDTDO or DMtcyDTDO.

[2] = tested on: EGFR, DR4, and DR5 in MDA-MB-468 breast cancer cells; test: Immunoblot of cell extracts prepared under non-reducing conditions; type: cell-based; conditions: 24 h, FIG. 16
Protocol: MDA-MB-468 breast cancer cells were treated for 24 h with the indicated concentrations of DMtcyDTDO and cells were analyzed by immunoblot. Cell extracts were prepared under non-reducing conditions in the presence of 100 mM N-ethylmaleimide to preserve disulfide bonding patterns (FIG. 16). […] The oligomerized forms of DR4 and DR5 represent the activated form of these receptors.

[3] = tested on: MDA-MB-468 cells; test: Protein synthesis assay; type: cell-based
Protocol: FIG. 11. depicts the inhibition of global protein synthesis upon treatment of MDA-MB-468 cells with tcyDTDO.
as §1
(§2) Thus, without being bound by any particular theory, it is speculated that compounds of Formula (I)-(VI) regulate DR5 steady-state protein levels in addition to the observed transcriptional induction.

[4] = tested on: MDA-MB-468 cells; test: Immunoblot assays; type: cell-based; conditions: for PARP cleavage: MDA-MB-468, single agent, FIG. 15; for responsiveness of the cell line to treatment: MDA-MB-468 TNBC line
[5] = tested on: MDA-MB-468 cells; test: MTT cell viability assay; type: cell-based
Protocol: MTT cell viability was evaluated using MTT (3-(4,5-dimethylthiazol-2-yl)-2,5-diphenyltetrazolium bromide) assays carried out based on the manufacturer's instructions (kit CGD1, Sigma-Aldrich, St. Louis, MO).
Cell viability assays were performed in MDA-MB-468 (FIG. 8) and BT474 (FIG. 9) cell lines in the presence of increasing concentrations of tcyDTDO and/or TRAIL using the MTT method. The results were analyzed using the Chou-Talalay method [T. C. Chou, P. Talalay, Generalized equations for the analysis of inhibitions of Michaelis-Menten and higher-order kinetic systems with two or more mutually exclusive and nonexclusive inhibitors, Eur J Biochem, 115 (1981) 207-216; T. C. Chou, P. Talalay, Quantitative analysis of dose-effect relationships: the combined effects of multiple drugs or enzyme inhibitors, Adv Enzyme Regul, 22 (1984) 27-55.] to calculate combination indices (Cis) where CI<1 denotes synergy, CI=1 denotes additivity, and C I>1 denotes antagonism.
as §1

[6] = tested on: DR5Long in MDA-MB-468 cell line; type: cell-based
Text: A MDA-MB-468 cell line was engineered to stably express the long form of DR5 (DR5Long) in a tetracycline-inducible manner in order to separate DR5A effects on DR5 protein stability from transcriptional activation.

[7] = tested on: protein thiolates of MDA-MB-468 cell lysates; test: Protein thiolate reactivity assay (BGPD labeling of cell lysates); type: biochemical; conditions: MDA-MB-468 cell lysates treated with compound in molar excess, then BGPD; FIG. 2
Protocol: To assess tcyDTDO reactivity with protein thiolates, MDA-MB-468 cell lysates were treated with various compounds in sufficient molar excess to block all protein thiolates. A non-selective thiol-reactive biotinylated analog (BGPD, FIG. 2) was then added to quantify free thiolates remaining after the pre-labeling.

[8] = tested on: DR5 in MDA-MB-468 cells; test: DR5 oligomerization immunoblot; type: cell-based; conditions: FIGS. 6 and 7
Text: Oligomerization of DR5 was also investigated in MDA-MB-468 cells as shown in FIG. 6 and FIG. 7, which is a magnification of the DR5Long/DR5Short portion of the immunoblot in FIG. 6.

[9] = tested on: DR5 transcription in HEK293 cells; test: DR5 transcriptional reporter construct; type: cell-based; conditions: 5 μM; FIG. 10
Text: FIG. 10. depicts increases in DR5 transcription by tcyDTDO in HEK293 cells as measured using a transcriptional reporter construct.
as §2

[10] = tested on: BT474 cells; test: Immunoblot assays; type: cell-based; conditions: BT474 cancer line

CO[C@H]1C[C@@H]2CS(=O)(=O)SC[C@H]2C[C@@H]1OC (racemic) [DMtcyDTDO, (4aS,6S,7S,8aS)- and (4aR,6R,7R,8aR)-6,7-Dimethoxyoctahydrobenzo[d][1,2]dithiine 2,2-dioxide]
effect on proliferation compared to equal doses of tcyDTDO [1]: significantly greater effect | oligomerization of EGFR, DR4, and DR5 ([2]; 100 mM N-ethylmaleimide): induces oligomerization of EGFR, DR4, and DR5 | DR5 level [2]: upregulates DR5 | effect on protein synthesis compared to equal doses of tcyDTDO ([3]; 24 treatment, FIG. 14): significantly greater effect | PARP cleavage [4]: induce PARP cleavage | responsiveness of the cell line to treatment [4]: highly responsive | effect on cell viability compared to equal doses of tcyDTDO ([5]; MDA-MB-468, 24 treatment, FIG. 12): significantly greater effect

C/C=C(/C)C(=O)O[C@H]1C(C)=C2[C@H]([C@@H]1OC(=O)CCCCCCC)[C@@](C)(OC(C)=O)C[C@H](OC(=O)CCC)[C@@]1(O)[C@H]2OC(=O)[C@@]1(C)O [Thapsigargin]
doxycycline-mediated increase in DR5Long ([6]; reducing conditions, FIG. 5): did not mimic the effects of tcyDTDO

Tunicamycin
doxycycline-mediated increase in DR5Long ([6]; reducing conditions, FIG. 5): did not mimic the effects of tcyDTDO

CCN1C(=O)C=CC1=O [N-ethylmaleimide (NEM), N-ethylmaleimide, reference compound]
BGPD labeling of free thiolates remaining after pre-labeling [7]: prevented BGPD labeling

O[C@H](CS)[C@H](O)CS (racemic) [Dithiothreitol (DTT), Dithiothreitol]
doxycycline-mediated increase in DR5Long ([6]; reducing conditions, FIG. 5): did not mimic the effects of tcyDTDO

O=S1(=O)CC2CCCCC2CS1 (stereo not shown) [tcyDTDO]
DR5 dimerization and oligomerization [8]: increase in DR5 dimerization and oligomerization | BGPD labeling of free thiolates remaining after pre-labeling [7]: did not reduce BGPD labeling | doxycycline-mediated increase in DR5Long ([6]; reducing conditions, FIG. 5): enhanced | DR5 transcription [9]: increased DR5 transcription | inhibition at 5 µM ([3]; Homo sapiens, 5 μM, FIG. 11, read-out: inhibition of global protein synthesis): > 95% | PARP cleavage [4]: induce PARP cleavage | responsiveness of the cell line to treatment [4]: highly responsive | DR5 expression ([4]; immunoblot): increased DR5 expression | potency in reducing cancer cell viability ([5]; MTT, FIG. 1, compared with the other compounds profiled): most potent compound identified so far | responsiveness of the cell line to treatment [10]: highly responsive

Cyclosporine A [Cyclosporine A (CsA)]
doxycycline-mediated increase in DR5Long [6]: did not mimic the effects of tcyDTDO

CC(C)[C@H](NC(=O)c1ccc2ccccc2n1)C(=O)N[C@@H](CC(=O)O)C(=O)COc1c(F)cccc1F [Q-VD-OPH, reference compound]
effect on tcyDTDO/TRAIL downregulation of EGFR, Akt, phospho-Akt, PDK1 ([4]; MDA-MB-468 cells): partially reverses | effect on tcyDTDO-mediated upregulation of DR5 or the ER stress response ([4]; caspase inhibitor added): does not alter | effect on PARP cleavage induced by tcyDTDO/TRAIL ([4]; caspase inhibitor added, FIGS. 3, 4): blocked
